# Measurements as given in ChEMBL document CHEMBL3822390, “Synthesis, characterization and anti-cancer activity of a peptide nucleolipid bioconjugate” (2016).
# How the values were obtained:
# Assay type in all cases: functional
# MDA-MB-435 = assay: Cytotoxicity against human MDA-MB-435 cells assessed as cell growth at 10 uM after 48 hrs by SRB assay; conditions: MDA-MB-435, 48 h, read-out: Activity
# U-251 = assay: Cytotoxicity against human U251 cells assessed as cell growth at 10 uM after 48 hrs by SRB assay; conditions: U-251, 48 h, read-out: Activity
# [1] = Cytotoxicity against human RXF393 cells assessed as cell growth at 10 uM after 48 hrs by SRB assay; conditions: RXF 393, 48 h, read-out: Activity
# [2] = Cytotoxicity against human HOP62 cells assessed as cell growth at 10 uM after 48 hrs by SRB assay; conditions: HOP-62, 48 h, read-out: Activity
# [3] = Cytotoxicity against human SNB75 cells assessed as cell growth at 10 uM after 48 hrs by SRB assay; conditions: SNB-75, 48 h, read-out: Activity
# [4] = Cytotoxicity against human HL-60(TB) cells assessed as cell growth at 10 uM after 48 hrs by SRB assay; conditions: HL-60, 48 h, read-out: Activity
# [5] = Cytotoxicity against human SKOV3 cells assessed as cell growth at 10 uM after 48 hrs by SRB assay; conditions: SK-OV-3, 48 h, read-out: Activity
# A549 = assay: Cytotoxicity against human A549 cells assessed as cell growth at 10 uM after 48 hrs by SRB assay; conditions: A549, 48 h, read-out: Activity
# [6] = Cytotoxicity against human OVCAR8 cells assessed as cell growth at 10 uM after 48 hrs by SRB assay; conditions: OVCAR-8, 48 h, read-out: Activity
# [7] = Cytotoxicity against human RPMI8226 cells assessed as cell growth at 10 uM after 48 hrs by SRB assay; conditions: RPMI-8226, 48 h, read-out: Activity
# [8] = Cytotoxicity against human OVCAR5 cells assessed as cell growth at 10 uM after 48 hrs by SRB assay; conditions: OVCAR-5, 48 h, read-out: Activity
# K562 = assay: Cytotoxicity against human K562 cells assessed as cell growth at 10 uM after 48 hrs by SRB assay; conditions: K562, 48 h, read-out: Activity
# [9] = Cytotoxicity against human BT549 cells assessed as cell growth at 10 uM after 48 hrs by SRB assay; conditions: BT-549, 48 h, read-out: Activity
# [10] = Cytotoxicity against human RXF393 cells assessed as cell growth at 7.25 uM after 48 hrs by SRB assay; conditions: RXF 393, 48 h, read-out: Activity
# NCI-H226 [11] = assay: Cytotoxicity against human NCI-H226 cells assessed as cell growth at 7.25 uM after 48 hrs by SRB assay; conditions: NCI-H226, 48 h, read-out: Activity
# EKVX = assay: Cytotoxicity against human EKVX cells assessed as cell growth at 7.25 uM after 48 hrs by SRB assay; conditions: read-out: Activity
# [12] = Cytotoxicity against human SF295 cells assessed as cell growth at 7.25 uM after 48 hrs by SRB assay; conditions: SF-295, 48 h, read-out: Activity
# [13] = Cytotoxicity against human Hs 578T cells assessed as cell growth at 7.25 uM after 48 hrs by SRB assay; conditions: read-out: Activity
# [14] = Cytotoxicity against human PC3 cells assessed as cell growth at 7.25 uM after 48 hrs by SRB assay; conditions: PC-3, 48 h, read-out: Activity
# [15] = Cytotoxicity against human Caki1 cells assessed as cell growth at 7.25 uM after 48 hrs by SRB assay; conditions: CAKI-1, 48 h, read-out: Activity
# NCI-H522 [16] = assay: Cytotoxicity against human NCI-H522 cells assessed as cell growth at 7.25 uM after 48 hrs by SRB assay; conditions: NCI-H522, 48 h, read-out: Activity
# [17] = Cytotoxicity against human UO31 cells assessed as cell growth at 7.25 uM after 48 hrs by SRB assay; conditions: UO-31, 48 h, read-out: Activity
# T47D [18] = assay: Cytotoxicity against human T47D cells assessed as cell growth at 7.25 uM after 48 hrs by SRB assay; conditions: read-out: Activity
# SK-MEL-5 [19] = assay: Cytotoxicity against human SK-MEL-5 cells assessed as cell growth at 7.25 uM after 48 hrs by SRB assay; conditions: SK-MEL-5, 48 h, read-out: Activity
# SR = assay: Cytotoxicity against human SR cells assessed as cell growth at 7.25 uM after 48 hrs by SRB assay; conditions: read-out: Activity
# [20] = Cytotoxicity against human HOP92 cells assessed as cell growth at 7.25 uM after 48 hrs by SRB assay; conditions: HOP-92, 48 h, read-out: Activity
# [21] = Cytotoxicity against human SW620 cells assessed as cell growth at 7.25 uM after 48 hrs by SRB assay; conditions: SW-620, 48 h, read-out: Activity
# NCI-H226 [22] = assay: Cytotoxicity against human NCI-H226 cells assessed as cell mortality at 2.13 uM after 48 hrs by SRB assay; conditions: NCI-H226, 48 h
# KM12 = assay: Cytotoxicity against human KM12 cells assessed as cell growth at 2.13 uM after 48 hrs by SRB assay; conditions: KM12, 48 h, read-out: Activity
# [23] = Cytotoxicity against human RPMI8226 cells assessed as cell growth at 2.13 uM after 48 hrs by SRB assay; conditions: RPMI-8226, 48 h, read-out: Activity
# NCI-H522 [24] = assay: Cytotoxicity against human NCI-H522 cells assessed as cell growth at 2.13 uM after 48 hrs by SRB assay; conditions: NCI-H522, 48 h, read-out: Activity
# [25] = Cytotoxicity against human HOP92 cells assessed as cell growth at 2.13 uM after 48 hrs by SRB assay; conditions: HOP-92, 48 h, read-out: Activity
# [26] = Cytotoxicity against human UACC62 cells assessed as cell growth at 2.13 uM after 48 hrs by SRB assay; conditions: UACC-62, 48 h, read-out: Activity
# T47D [27] = assay: Cytotoxicity against human T47D cells assessed as cell growth at 2.13 uM after 48 hrs by SRB assay; conditions: read-out: Activity
# SK-MEL-5 [28] = assay: Cytotoxicity against human SK-MEL-5 cells assessed as cell growth at 2.13 uM after 48 hrs by SRB assay; conditions: SK-MEL-5, 48 h, read-out: Activity
# A498 = assay: Cytotoxicity against human A498 cells assessed as cell growth at 2.13 uM after 48 hrs by SRB assay; conditions: A498, 48 h, read-out: Activity
# [29] = Cytotoxicity against human OVCAR3 cells assessed as cell growth at 2.13 uM after 48 hrs by SRB assay; conditions: OVCAR-3, 48 h, read-out: Activity
# MCF7 = assay: Cytotoxicity against human MCF7 cells assessed as cell growth at 2.13 uM after 48 hrs by SRB assay; conditions: MCF7, 48 h, read-out: Activity
# [30] = Cytotoxicity against human HCC2998 cells assessed as cell growth at 2.13 uM after 48 hrs by SRB assay; conditions: HCC 2998, 48 h, read-out: Activity
# CCRF-CEM = assay: Cytotoxicity against human CCRF-CEM cells assessed as cell growth at 2.13 uM after 48 hrs by SRB assay; conditions: read-out: Activity
# NCI-H226 [31] = assay: Cytotoxicity against human NCI-H226 cells assessed as cell growth at 2.13 uM after 48 hrs by SRB assay; conditions: NCI-H226, 48 h, read-out: Activity
structure (smiles),measurement,setting,value
CC(C)C[C@H](NC(=O)[C@H](CCCCN)NC(=O)[C@H](C)NC(=O)[C@H](CC(C)C)NC(=O)[C@H](CCCCN)NC(=O)[C@H](CCCCN)NC(=O)[C@H](C)NC(=O)[C@H](CC(C)C)NC(=O)[C@H](CCCCN)NC(=O)[C@H](C)NC(=O)[C@H](CC(C)C)NC(=O)[C@H](CCCCN)NC(=O)[C@@H](N)CC(=O)O)C(=O)N[C@@H](C)C(=O)N[C@@H](CCCCN)C(=O)N[C@@H](C)C(=O)N[C@@H](CCCCN)C(N)=O,growth at 10 µM,MDA-MB-435,108%
same,growth at 10 µM,U-251,94.6%
same,growth at 10 µM,[1],110%
same,growth at 10 µM,[2],104%
same,growth at 10 µM,[3],98.8%
same,growth at 10 µM,[4],99.5%
same,growth at 10 µM,[5],98.7%
same,growth at 10 µM,A549,81%
same,growth at 10 µM,[6],101%
same,growth at 10 µM,[7],104%
same,growth at 10 µM,[8],98.6%
same,growth at 10 µM,K562,99.8%
same,growth at 10 µM,[9],105%
CCCCCCCCCCCCCCCC(=O)NCCCC[C@H](NC(=O)[C@H](C)NC(=O)[C@H](CCCCN)NC(=O)[C@H](C)NC(=O)[C@H](CC(C)C)NC(=O)[C@H](CCCCN)NC(=O)[C@H](C)NC(=O)[C@H](CC(C)C)NC(=O)[C@H](CCCCN)NC(=O)[C@H](CCCCN)NC(=O)[C@H](C)NC(=O)[C@H](CC(C)C)NC(=O)[C@H](CCCCN)NC(=O)[C@H](C)NC(=O)[C@H](CC(C)C)NC(=O)[C@H](CCCCN)NC(=O)[C@@H](N)CC(=O)O)C(N)=O,growth at 7.25 µM,[10],111%
same,growth at 7.25 µM,NCI-H226 [11],99.5%
same,growth at 7.25 µM,EKVX,105%
same,growth at 7.25 µM,[12],110%
same,growth at 7.25 µM,[13],101%
same,growth at 7.25 µM,[14],91.2%
same,growth at 7.25 µM,[15],98.3%
same,growth at 7.25 µM,NCI-H522 [16],83.5%
same,growth at 7.25 µM,[17],87.3%
same,growth at 7.25 µM,T47D [18],99%
same,growth at 7.25 µM,SK-MEL-5 [19],102%
same,growth at 7.25 µM,SR,91.9%
same,growth at 7.25 µM,[20],113%
same,growth at 7.25 µM,[21],107%
CCCCCCCCCCCCCCCCNCCO[C@H]1C[C@H](n2cc(C)c(=O)[nH]c2=O)O[C@@H]1C(=O)NCCCC[C@H](NC(=O)[C@H](C)NC(=O)[C@H](CCCCN)NC(=O)[C@H](C)NC(=O)[C@H](CC(C)C)NC(=O)[C@H](CCCCN)NC(=O)[C@H](C)NC(=O)[C@H](CC(C)C)NC(=O)[C@H](CCCCN)NC(=O)[C@H](CCCCN)NC(=O)[C@H](C)NC(=O)[C@H](CC(C)C)NC(=O)[C@H](CCCCN)NC(=O)[C@H](C)NC(=O)[C@H](CC(C)C)NC(=O)[C@H](CCCCN)NC(=O)[C@@H](N)CC(=O)O)C(N)=O,mortality at 2.13 µM,NCI-H226 [22],4%
same,growth at 2.13 µM,KM12,103%
same,growth at 2.13 µM,[23],104%
same,growth at 2.13 µM,NCI-H522 [24],88.8%
same,growth at 2.13 µM,[25],86.8%
same,growth at 2.13 µM,[26],104%
same,growth at 2.13 µM,T47D [27],91.6%
same,growth at 2.13 µM,SK-MEL-5 [28],105%
same,growth at 2.13 µM,A498,109%
same,growth at 2.13 µM,[29],107%
same,growth at 2.13 µM,MCF7,98.9%
same,growth at 2.13 µM,[30],104%
same,growth at 2.13 µM,CCRF-CEM,108%
same,growth at 2.13 µM,NCI-H226 [31],96.5%
